Experimental data published in ChEMBL document CHEMBL1135192, “Translocation of the 5-alkoxy substituent of 2,5-dialkoxyarylalkylamines to the 6-position: effects on 5-HT(2A/2C) receptor affinity” (Bioorg Med Chem Lett, 2002).

Assays:
[1] = biological target: T1, 5-hydroxytryptamine receptor 2A (Rattus norvegicus, UniProt P14842); experiment: Compound was evaluated for its ability to displace (+/-)[125I]-DOI from 5-hydroxytryptamine 2A receptor in cloned rat cell culture
[2] = biological target: T2, 5-hydroxytryptamine receptor 2C (Rattus norvegicus, UniProt P08909); experiment: Compound was evaluated for its ability to displace (+/-)[125I]-DOI from 5-hydroxytryptamine 2C receptor in cloned rat cell culture
T2 sequence (P08909 whole entry): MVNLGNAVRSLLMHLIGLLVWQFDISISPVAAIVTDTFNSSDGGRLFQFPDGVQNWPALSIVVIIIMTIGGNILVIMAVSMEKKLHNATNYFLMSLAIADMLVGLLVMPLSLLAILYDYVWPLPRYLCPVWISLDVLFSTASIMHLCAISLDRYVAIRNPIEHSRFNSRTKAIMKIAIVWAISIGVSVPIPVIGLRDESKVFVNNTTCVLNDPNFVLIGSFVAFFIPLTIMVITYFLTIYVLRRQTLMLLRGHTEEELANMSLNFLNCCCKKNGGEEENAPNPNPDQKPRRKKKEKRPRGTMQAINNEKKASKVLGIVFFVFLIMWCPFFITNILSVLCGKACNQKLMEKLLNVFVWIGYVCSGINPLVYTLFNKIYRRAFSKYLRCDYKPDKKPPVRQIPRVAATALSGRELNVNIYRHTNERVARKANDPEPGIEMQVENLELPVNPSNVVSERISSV

Rattus norvegicus = species on record: Rattus norvegicus; experiment: Drug discrimination in LSD-trained rats; type: functional
[3] = biological target: T1, 5-hydroxytryptamine receptor 2A; experiment: biochemical
Description: Compound was evaluated for its ability to displace [125I](R)-DOI from 5-hydroxytryptamine 2A receptor in cloned rat prefrontal cortex homogenate

T1 sequence (P14842 whole entry): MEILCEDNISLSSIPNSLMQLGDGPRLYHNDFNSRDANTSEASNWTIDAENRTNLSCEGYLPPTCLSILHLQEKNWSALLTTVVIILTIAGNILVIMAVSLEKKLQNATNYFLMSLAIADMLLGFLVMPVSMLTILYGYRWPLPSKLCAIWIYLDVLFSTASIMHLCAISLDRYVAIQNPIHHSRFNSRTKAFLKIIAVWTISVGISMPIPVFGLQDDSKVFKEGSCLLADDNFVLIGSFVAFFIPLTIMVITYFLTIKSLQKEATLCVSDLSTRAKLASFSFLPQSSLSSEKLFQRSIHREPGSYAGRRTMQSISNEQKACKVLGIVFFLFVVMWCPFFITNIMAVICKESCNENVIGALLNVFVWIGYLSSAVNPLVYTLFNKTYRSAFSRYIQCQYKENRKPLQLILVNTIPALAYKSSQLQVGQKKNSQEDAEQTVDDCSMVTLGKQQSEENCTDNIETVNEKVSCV

Structure (SMILES) | Ki [1] | Ki [2] | ED50 (Rattus norvegicus) | Ki [3]
Cc1c2c(c(CC(C)N)c3c1CCO3)OCC2 (stereo not drawn) | 6.3 nM | 7.5 nM |  | 
COc1cc(C)cc(OC)c1CC(C)N (stereo not drawn) | 49 nM | 50 nM |  | 
COc1cc(CC(C)N)c(OC)cc1C (stereo not drawn) [DOM] |  |  | 0.89 µmol/kg | 19 nM
Cc1c2ccoc2c(CC(C)N)c2occc12 (stereo not drawn) | 1.8 nM | 0.9 nM |  | 
